Measured values taken from patent US20260070945A1, “MACROCYCLIC IMMUNOMODULATORS” (Bristol-Myers Squibb Company, priority 2022, published 2026).
*1 amine or outer side, *2 acyl side, *3 side chain or, on linkers, in order; H or OH if unused. Where a SMILES comes first, the peptide text is derived from it. Bridges are numbered along the chain shown (N, C = ends). [ ]: non-standard residue; d: D form. The star is where a group is joined. ξ: configuration not given here. Phe(4-COOH) = N[C@@H](Cc1ccc(C(=O)O)cc1)C(=O)O; Bip = N[C@@H](Cc1ccc(-c2ccccc2)cc1)C(=O)O; Phe(3-Me) = Cc1cccc(C[C@H](N)C(=O)O)c1; γGlu = O=C(O)[C@H](CCC(=O)[*:2])N[*:1]; aIle = CC[C@@H](C)[C@H](N)C(=O)O; NMeE = CN[C@@H](CCC(=O)O)C(=O)O; Cha = N[C@@H](CC1CCCCC1)C(=O)O; Cit = NC(=O)NCCC[C@H](N)C(=O)O; Thr(3ξ) = CC(O)[C@H](N)C(=O)O; 12Ado = NCCCCCCCCCCCC(=O)O; Carboxymethyl = O=C(O)C*; NMeA = CN[C@@H](C)C(=O)O; Orn = NCCC[C@H](N)C(=O)O; Aun = NCCCCCCCCCCC(=O)O; Dab = NCC[C@H](N)C(=O)O; Dap = NC[C@H](N)C(=O)O; AEEA = NCCOCCOCC(=O)O

Target: T1, PD-1/PD-L1 interaction (PE-labeled human PD-L1-Ig binding to Jurkat cell line over-expressing human PD-1) (Homo sapiens, UniProt Q15116)
T1 construct: expressed in transfected cells; host or cells: Jurkat
Test: Jurkat-PD-1 Cell Binding High-Content Screening Assay (CBA)
Conditions: Jurkat-hPD-1 cells, PE-labeled PD-L1-Ig 20 nM final; read-out: Jurkat HPD1 PDL1 IC50
Outline: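 Jurkat cells overexpressing human PD-1 (8×10^3/well, DMEM + 10% FCS) preincubated with compound 2 h at 37 °C, then PE-labelled human PD-L1-Ig (20 nM final) for 1 h. Cells fixed in paraformaldehyde with Hoechst 33342; bound PD-L1 quantified by high-content imaging.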

T1 sequence (Q15116 25-288): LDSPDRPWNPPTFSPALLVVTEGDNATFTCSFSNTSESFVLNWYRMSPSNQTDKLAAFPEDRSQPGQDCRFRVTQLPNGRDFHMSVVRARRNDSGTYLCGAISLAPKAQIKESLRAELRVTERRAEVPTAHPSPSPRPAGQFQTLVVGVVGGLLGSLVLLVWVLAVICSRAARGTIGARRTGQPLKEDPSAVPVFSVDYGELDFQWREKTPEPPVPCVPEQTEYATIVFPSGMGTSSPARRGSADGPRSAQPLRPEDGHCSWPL

Structure (SMILES)	IC50 [nM]
Cc1cccc(C[C@@H]2NC(=O)[C@H](CC(=O)O)NC(=O)[C@H](Cc3ccc(OCC(=O)O)cc3)NC(=O)[C@H](CN)NC(=O)CSC[C@@H](C(=O)N[C@@H](CCCN)C(=O)N[C@@H](CO)C(=O)NCCCCCCCCCCCC(=O)O)NC(=O)[C@H](C(C)O)NC(=O)[C@H](C(C)C)NC(=O)[C@H](CC3CCCCC3)NC(=O)[C@H](CCN)NC(=O)[C@@H](CC(C)C)NC(=O)[C@H](C)N(C)C(=O)[C@H](CCCNC(N)=O)NC(=O)[C@H](Cc3ccc(-c4ccccc4)cc3)NC(=O)[C@H](Cc3ccc(O)cc3)NC2=O)c1 (stereo partly drawn) [Example 2402] ({CH2CO}-[Dap]Y(Carboxymethyl)D[Phe(3-Me)]Y[Bip][Cit][NMeA][dL][Dab][Cha]V[Thr(3ξ)]C[Orn]S[12Ado]-OH; thioether N-14)	51.7
CC(C)C[C@H]1NC(=O)[C@H](C)N(C)C(=O)[C@H](Cc2ccc(OCC(=O)O)cc2)NC(=O)[C@H](Cc2ccc(-c3ccccc3)cc2)NC(=O)[C@H](Cc2ccc(OCC(=O)O)cc2)NC(=O)[C@H](Cc2c[nH]c3ccccc23)NC(=O)[C@H](CC(=O)O)NC(=O)[C@H](Cc2ccc(OCC(=O)O)cc2)NC(=O)[C@H]([C@@H](C)O)NC(=O)CSC[C@@H](C(=O)N[C@@H](CCCN)C(=O)NCCOCCOCC(=O)NCCCCCCCCCCC(=O)O)NC(=O)[C@H](CCC(=O)O)NC(=O)[C@H](C(C)C)NC(=O)[C@H](CC2CCCCC2)NC(=O)[C@H](CC(N)=O)NC1=O [Example 1388] ({CH2CO}-TY(Carboxymethyl)DWY(Carboxymethyl)[Bip]Y(Carboxymethyl)[NMeA][dL]N[Cha]VEC[Orn][AEEA][Aun]-OH; thioether N-14)	660
Cc1cccc(C[C@@H]2NC(=O)[C@H](CC(=O)O)NC(=O)[C@H](Cc3ccc(OCC(=O)O)cc3)NC(=O)[C@H](Cc3ccc(OCC(=O)O)cc3)NC(=O)CSC[C@@H](C(=O)NCCCCCCCCCCC(=O)O)NC(=O)[C@H](CCC(=O)O)NC(=O)[C@H](C(C)C)NC(=O)[C@H](CC3CCCCC3)NC(=O)[C@H](CCN)NC(=O)[C@@H](CC(C)C)NC(=O)[C@H](CCC(=O)O)N(C)C(=O)[C@H](Cc3ccc(O)cc3)NC(=O)[C@H](Cc3ccc(-c4ccccc4)cc3)NC(=O)[C@H](Cc3ccc(O)cc3)NC2=O)c1 [Example 2256] ({CH2CO}-Y(Carboxymethyl)Y(Carboxymethyl)D[Phe(3-Me)]Y[Bip]Y[NMeE][dL][Dab][Cha]VEC[Aun]-OH; thioether N-14)	98.8

Results, then the molecule that gave them:

IC50 [nM]	Structure (SMILES)
35.3	CC(=O)NCCCC[C@@H]1NC(=O)[C@H](Cc2ccc(-c3ccccc3)cc2)NC(=O)[C@H](CC(C)C)NC(=O)[C@H](Cc2cccc(C)c2)NC(=O)[C@H](CC(=O)O)NC(=O)[C@H](Cc2ccc(C(=O)O)cc2)NC(=O)[C@H](Cc2ccc(OCC(=O)O)cc2)NC(=O)CSC[C@@H](C(=O)NCCOCCOCC(=O)NCCCCCCCCCCC(=O)O)NC(=O)[C@H](C(C)O)NC(=O)[C@H](C(C)C)NC(=O)[C@H](CC2CCCCC2)NC(=O)[C@H](CCN)NC(=O)[C@@H](CC(C)C)NC(=O)[C@H](C)N(C)C1=O (stereo partly drawn) [Example 2282] ({CH2CO}-Y(Carboxymethyl)[Phe(4-COOH)]D[Phe(3-Me)]L[Bip]K(Ac)[NMeA][dL][Dab][Cha]V[Thr(3ξ)]C[AEEA][Aun]-OH; thioether N-14)
38.3	CC[C@@H](C)[C@@H]1NC(=O)[C@H](Cc2ccc(-c3ccccc3)cc2)NC(=O)[C@H](C(C)C)NC(=O)[C@H](Cc2c[nH]c3ccccc23)NC(=O)[C@H](CC(=O)O)NC(=O)[C@H](Cc2ccc(OCC(=O)O)cc2)NC(=O)[C@H](CCCNC(N)=O)NC(=O)CSC[C@@H](C(=O)N[C@H](CC(N)=O)C(=O)NCCOCCOCC(=O)N[C@@H](CCC(=O)NCCOCCOCC(=O)N[C@@H](CCC(=O)NCCOCCOCC(=O)N[C@@H](CCCN)C(=O)NCCCCCCCCCCC(=O)O)C(=O)O)C(=O)O)NC(=O)[C@H](CO)NC(=O)[C@H](C(C)C)NC(=O)[C@H](CC2CCCCC2)NC(=O)[C@H](CC(N)=O)NC(=O)[C@@H](CC(C)C)NC(=O)[C@H](C)N(C)C1=O [Example 2024] ({CH2CO}-[Cit]Y(Carboxymethyl)DWV[Bip][aIle][NMeA][dL]N[Cha]VSC[dN][AEEA][γGlu][AEEA][γGlu][AEEA][Orn][Aun]-OH; thioether N-14)
